For 12 compounds, IC50 results are on record in patent publication US20180369268A1, “METHODS FOR IDENTIFYING INHIBITORS OF "STIMULATOR OF INTERFERON GENE"- DEPENDENT INTERFERON PRODUCTION” (ADURO BIOTECH, INC., priority 2015, published 2018).

Structures are written as SMILES.

T1 sequence (Q86WV6 whole entry R71H/G230A/H232R/R293Q): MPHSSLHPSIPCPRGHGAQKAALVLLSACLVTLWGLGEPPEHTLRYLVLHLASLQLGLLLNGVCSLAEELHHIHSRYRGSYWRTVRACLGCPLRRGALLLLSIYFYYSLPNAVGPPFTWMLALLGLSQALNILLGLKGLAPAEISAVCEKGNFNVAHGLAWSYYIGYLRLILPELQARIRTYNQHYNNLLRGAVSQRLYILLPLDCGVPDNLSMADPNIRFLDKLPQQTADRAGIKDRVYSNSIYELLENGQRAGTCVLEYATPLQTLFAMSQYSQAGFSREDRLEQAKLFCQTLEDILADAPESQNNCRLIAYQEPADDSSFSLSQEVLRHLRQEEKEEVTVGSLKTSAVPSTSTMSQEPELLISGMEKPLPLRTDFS

The first experiment addresses T1, STING in THP1 cells (HAQ allele) (Homo sapiens, UniProt Q86WV6, G230A/H232R/R293Q/R71H).
T1 construct: host or cells: THP-1 dual reporter cells
The experiment is described as follows: THP-1 competition assay with STING agonist 2′3′-RR-(A)(A) (IRF-3 luciferase reporter). It is filed as cell-based.
Settings: not given
As to the method:
The scaffold molecules and STING inhibitory compounds as described herein are assayed for their ability to inhibit the induction of STING dependent IFN-β production by an agonist compound in a competition assay. Relative induction of IRF-3 signaling in THP-1 cells (HAQ allele) was measured after stimulating the cells with a mix of a scaffold molecule (or any putative STING antagonist) titrated against a constant concentration of the STING agonist 2′3′-RR-(A)(A) in PB buffer (50 mM HEPES pH 7.5, 100 mM KCl, 3 mM MgCl2, 0.1 mM DTT, 85 mM sucrose, 0.2% BSA, 1 mM ATP, 0.1 mM GTP).
One day prior to performing the assay, THP-1 dual (Invivogen) reporter cells were plated at 500,000 cells/mL in 200 μL per well in a 96-well plate and differentiated overnight with 3 μg/mL phorbal myristate acetate in RPMI medium 1640 (4.5 g/L D-glucose, 2.383 g/L HEPES, 300 mg/L L-glutamine, 1.5 g/L sodium bicarbonate, 110 mg/L sodium pyruvate, 10% heat-inactivated fetal bovine serum, 1× penicillin/streptomycin, 0.1 mg/mL normocin).
On the day of the assay, the media was removed from the wells and replaced with 150 μL of fresh media. The titrations against 2′ 3′-RR-(A)(A) in a final volume of 100 μL were made as follows: two-fold dilutions (2,000 μM-3.9 μM) of the scaffold molecule into PB buffer containing 100 μM 2′3′-RR-(A)(A) for a final concentration of 50 μM 2′3′-RR-(A)(A). Compounds were tested in biological triplicate.
The cells were then stimulated with 25 μL of each titration for 30 minutes at 37° C. in a CO2 incubator. After stimulating, the cells were washed twice, first with 100 μL and then 150 μL of fresh media. After washing, 150 μL of media was added to each well and the cells were incubated for 17 hours overnight at 37° C. in a CO2 incubator.
To detect IRF-3 signaling, 50 μL of luciferase substrate (Invivogen QUANTI-Luc coelenterazine-based luminescence reagent reconstituted in 25 mL water) was added to 10 μL of supernatant from each well in a 96-well white opaque plate. Luminescence was measured using a SpectraMax M3 plate reader (Molecular Devices) and relative fold-induction was calculated as the values obtained from wells containing both the scaffold molecule and 2′3′-RR-(A)(A) divided by the values obtained from wells containing 2′3′-RR-(A)(A) alone. The average of the relative fold-induction was plotted against the log concentration of the antagonist. Agonist compounds 2′3′-RR-(G)(A) and RR-(A)(A) were run as controls in this assay (see FIGS. 2A and 2B).
The results are provided for control compounds in FIGS. 2A and 2B and scaffold molecules in FIGS. […]: 2′3′-SR-(3′OTBS-A)(2′F-A) (FIG. 3A, Comp. 6a), SR-(2′F-A)(2′OTBS-A) (FIG. 3B, Comp. 18a), RR-(2,6-DAP)(2,6-DAP) (FIG. 3C, Comp. 23), RS-(2,6-DAP)(2,6-DAP) (FIG. 3D, Comp. 23a), (6-O-propargyl-G)(G) (FIG. 3E, Comp. 25), RR-(2′F-ibG)(2′F-ibG) (FIG. 3F, Comp. 32), RR-(2′F-C)(2′F-A) (FIG. 3G, Comp. 37), RS-(2′F-C)(2′F-A) (FIG. 3H, Comp. 37a), 3′2′-RR-(ibG)(BzA) (FIG. 3I, Comp. 42), 3′2′-SS-(G)(A) (FIG. 3J, Comp. 43), dithio-3′2′-(2′OTBS-G)(3′OTBS-A) isomer 1 (FIG. 3K, Comp. 49, isomer 1), dithio-3′2′-(2′OTBS-G)(3′OTBS-A) isomer 2 (FIG. 3L, Comp. 49, isomer 2), Beta-L-SS-(A)(A) (FIG. 3M, Comp. 48), Beta-L-RS-(A)(A) (FIG. 3N, Comp. 48a), and Beta-L-RR-(A)(A) (FIG. 3O, Comp. 48b). Isomer 1 and 2 of Compound 49 are different isomers, and are each one of compound 49a, 49b, 49c or 49d.
For `CC(C)(C)[Si](C)(C)O[C@H]1[C@H]2O[P@@](=O)(S)OC[C@H]3O[C@@H](n4cnc5c(N)ncnc54)[C@H](F)[C@@H]3O[P@](=O)(S)OC[C@H]1O[C@H]2n1cnc2c(N)ncnc21` [Compound 6a, dithio-[SP, RP]-cyclic-[3′OTBS-A(2′,5′)p-2′F-A(3′,5′)p]], the 50% inhibitory concentration (IC50) (commonly the concentration needed to halve the response being measured) stood at 2170 µM.

The same experiment, now with this note: 50 μM 2′3′-RR-(A)(A), scaffold 2,000 μM-3.9 μM, without digitonin, IRF-3 reporter; read-out: IC50 inhibition of 2′3′-RR-(A)(A) agonist activity without digitonin in THP1 cells (HAQ allele).
Take `Nc1ccn([C@@H]2O[C@@H]3CO[P@@](=O)(S)O[C@H]4[C@@H](F)[C@H](n5cnc6c(N)ncnc65)O[C@@H]4CO[P@@](=O)(S)O[C@H]3[C@H]2F)c(=O)n1` [Compound 37, 4-amino-1-((2R,3R,3aR,5R,7aR,9R,10R,10aR,12R,14aR)-9-(6-amino-9H-purin-9-yl) 3,10-difluoro-5,12-dimercapto 5,12-dioxidooctahydro-2H,7H-difuro[3,2-d:3′,2′-j][1,3,7,9]tetraoxa[2,8]diphosphacyclododecin-2-yl)pyrimidin-2(1H)-one]: the IC50 was found to be 4120 µM.
On to `Nc1ccn([C@@H]2O[C@@H]3CO[P@](=O)(S)O[C@H]4[C@@H](F)[C@H](n5cnc6c(N)ncnc65)O[C@@H]4CO[P@@](=O)(S)O[C@H]3[C@H]2F)c(=O)n1` [Compound 37a, 4-amino-1-((2R,3R,3aR,5R,7aR,9R,10R, 10aR,12S,14aR)-9-(6-amino-9H-purin-9-yl)-3,10-difluoro-5,12-dimercapto-5,12-dioxidooctahydro-2H,7H-difuro[3,2-d: 3′,2′-j][1,3,7,9]tetraoxa[2,8]diphosphacyclododecin-2-yl)pyrimidin-2(1H)-one], for which the half-maximal inhibitory concentration (IC50) is 3200 µM.
The same measure, in the same setting: then `Nc1ncnc2c1ncn2[C@H]1O[C@H]2CO[P@@](=O)(S)O[C@@H]3[C@H](O)[C@@H](n4cnc5c(N)ncnc54)O[C@H]3CO[P@@](=O)(S)O[C@@H]2[C@@H]1O` [Compound 48b, triethylammonium (2S,3S,3R,5R,7aS,9S,10S,10aR,12R,14aS)-2,9-bis(6-amino-9H-purin-9-yl)-3,10-dihydroxyoctahydro-2H,7H-difuro[3,2-d: 3′,2′-j][1,3,7,9]tetraoxa[2,8]diphosphacyclododecine-5,12-bis(thiolate) 5,12-dioxide], with 342 µM.
`Nc1nc(N)c2ncn([C@@H]3O[C@@H]4CO[P@@](=O)(S)O[C@H]5[C@@H](O)[C@H](n6cnc7c(N)nc(N)nc76)O[C@@H]5CO[P@](=O)(S)O[C@H]4[C@H]3O)c2n1` [Compound 23a, (2R,3R,3aS,5R,7aR,9R,10R,10aS,12S,14aR)-2,9-bis(2,6-diamino-9H-purin-9-yl)-3,10-dihydroxy-5,12-dimercaptooctahydro-2H,7H-difuro[3,2-d:3′,2′-j][1,3,7,9]tetraoxa[2,8]diphosphacyclododecine 5,12-dioxide]: the 50% inhibitory concentration (IC50) was 150 µM.
On to `CC(C)C(=O)Nc1nc2c(ncn2[C@@H]2O[C@@H]3CO[P@@](=O)(S)O[C@H]4[C@@H](F)[C@H](n5cnc6c(=O)[nH]c(NC(=O)C(C)C)nc65)O[C@@H]4CO[P@@](=O)(S)O[C@H]3[C@H]2F)c(=O)[nH]1` [Compound 32, N,N′-(((2R,3R,3aR,5R,7aR,9R,10R,10aR,12R,14aR)-3,10-difluoro-5,12-dimercapto-5,12-dioxidooctahydro-2H, 7H-difuro[3,2-d:3′,2′-j][1,3,7,9]tetraoxa[2,8]diphosphacyclododecine-2,9-diyl)bis(6-oxo-6,9-dihydro-1H-purine-9,2-diyl))bis(2-methylpropanamide)], for which the IC50 worked out at 803 µM.
`Nc1ncnc2c1ncn2[C@H]1O[C@H]2CO[P@](=O)(S)O[C@@H]3[C@H](O)[C@@H](n4cnc5c(N)ncnc54)O[C@H]3CO[P@](=O)(S)O[C@@H]2[C@@H]1O` [Compound 48, (2S,3S,3aR,5S,7aS,9S,10S,10aR,12S,14aS)-2,9-bis(6-amino-9H-purin-9-yl)-3,10-dihydroxy-5,12-dimercaptooctahydro-2H,7H-difuro[3,2-d:3′,2′-j][1,3,7,9]tetraoxa[2,8]diphosphacyclododecine 5,12-dioxide]: the IC50 was found to be 662 µM.
For `Nc1nc2c(ncn2[C@@H]2O[C@@H]3CO[P@](=O)(S)O[C@@H]4[C@H](O)[C@@H](CO[P@](=O)(S)O[C@H]3[C@H]2O)O[C@H]4n2cnc3c(N)ncnc32)c(=O)[nH]1` [Compound 43], the 50% inhibitory concentration (IC50) came out at 4040 µM.
Consider `CC(C)C(=O)Nc1nc2c(ncn2[C@@H]2O[C@@H]3CO[P@@](=O)(S)O[C@@H]4[C@H](O)[C@@H](CO[P@@](=O)(S)O[C@H]3[C@H]2O)O[C@H]4n2cnc3c(NC(=O)c4ccccc4)ncnc32)c(=O)[nH]1` [Compound 42, dithio-[RP, RP]-cyclic-[ibG(3′,5′)p-BzA(2′,5′)p]], for which the 50% inhibitory concentration (IC50) was determined as 966 µM.
As to `Nc1nc(N)c2ncn([C@@H]3O[C@@H]4CO[P@@](=O)(S)O[C@H]5[C@@H](O)[C@H](n6cnc7c(N)nc(N)nc76)O[C@@H]5CO[P@@](=O)(S)O[C@H]4[C@H]3O)c2n1` [Compound 23, (2R,3R,3aS,5R,7aR,9R,10R,10aS,12R,14aR)-2,9-bis(2,6-diamino-9H-purin-9-yl)-3,10-dihydroxy-5,12-dimercaptooctahydro-2H,7H-difuro[3,2-d:3′,2′-j][1,3,7,9]tetraoxa[2,8]diphosphacyclododecine 5,12-dioxide], the IC50 came to 152 µM.
With `C#CCOc1nc(N)nc2c1ncn2[C@@H]1O[C@@H]2COP(=O)(O)O[C@H]3[C@@H](O)[C@H](n4cnc5c(=O)[nH]c(N)nc54)O[C@@H]3COP(=O)(O)O[C@H]2[C@H]1O` [compound 25, 2-amino-9-((2R,3R,3aS,7aR,9R,10R,10aS,14aR)-9-(2-amino-6-(prop-2-yn-1-yloxy)-9H-purin-9-yl)-3,5,10,12-tetrahydroxy-5,12-dioxidooctahydro-2H,7H-difuro[3,2-d:3′,2′-j][1,3,7,9]tetraoxa[2,8]diphosphacyclododecin-2-yl)-1,9-dihydro-6H-purin-6-one], the IC50 amounted to 5010 µM.
Take `Nc1ncnc2c1ncn2[C@H]1O[C@H]2CO[P@@](=O)(S)O[C@@H]3[C@H](O)[C@@H](n4cnc5c(N)ncnc54)O[C@H]3CO[P@](=O)(S)O[C@@H]2[C@@H]1O` [Compound 48a, Triethylammonium (2S,3S,3aR,5R,7aS,9S,10S,10aR,12S,14aS)-2,9-bis(6-amino-9H-purin-9-yl)-3,10-dihydroxyoctahydro-2H, 7H-difuro[3,2-d: 3′,2′-j][1,3,7,9]tetraoxa[2,8]diphosphacyclododecine-5,12-bis(thiolate) 5,12-dioxide]: the IC50 was determined as 308 µM.
